Each structure is given as a SMILES string.

A short description of this data set: Chemical stability of the compound assessed as half life in phosphate buffer at pH 6.0. It is filed as physicochemical.
Take `CC(C)[C@H](N)C(=O)Oc1ccc2c3c1O[C@H]1C(=O)CC[C@@]4(O)[C@@H](C2)N(CC2CC2)CC[C@]314.O=C(O)C(F)(F)F`: the half-life (usually the time needed for the level to fall by half in the phase considered) was found to be 0.53 h. `CC(=O)Nc1ccc(OC(=O)[C@@H]2CCCN2)cc1.Cl` [ACETAMINOPHEN PROLINATE HYDROCHLORIDE]: the half-life is 0.248 h. For `CC(=O)Nc1ccc(OC(=O)CCN(C)C)cc1.Cl`, the half-life was 1.88 h. In the case of `CCN(CC)CCC(=O)Oc1ccc(NC(C)=O)cc1.Cl`, the half-life was determined as 1.32 h. With `CC(=O)Nc1ccc(OC(=O)CCN2CCCCC2)cc1.Cl`, the half-life is 1.33 h.

Take `CC(=O)Nc1ccc(OC(=O)CN(C)C)cc1.Cl`: the half-life came out at 1.28 h.

Turning to `CC(=O)Nc1ccc(OC(=O)[C@H](C)N)cc1.Cl` [ACETAMINOPHEN ALANINATE HYDROCHLORIDE], the half-life worked out at 0.539 h. Regarding `CC(=O)Nc1ccc(OC(=O)[C@@H](N)C(C)C)cc1.Cl` [ACETAMINOPHEN VALINATE HYDROCHLORIDE], the half-life is 1.52 h. On to `CCN(CC)CC(=O)Oc1ccc(NC(C)=O)cc1.Cl`, for which the half-life turned out to be 1.76 h.

These data come from ChEMBL document CHEMBL1795248, “N,N'-Dialkylaminoalkylcarbonyl (DAAC) prodrugs and aminoalkylcarbonyl (AAC) prodrugs of 4-hydroxyacetanilide and naltrexone with improved skin permeation properties” (Bioorg Med Chem Lett, 2011).
